# Test results reported in patent publication US5955349A, “Compositions and methods for producing heterologous polypeptides in Pichia methanolica” (ZymoGenetics, Inc., priority 1996, dated 1999).
# System: P. methanolica cells (strain CBS6515, UV-mutagenized)
# Assay: Nystatin enrichment for auxotrophic mutants; titering of colony forming units versus control cells
# Conditions: 1 mg nystatin added to remainder (about 450 ml) of 500 ml culture in minimal broth with 5 g/L ammonium sulfate, one additional hour with shaking, versus untreated control cells
# Experimental: Large-scale mutagenesis was then carried out using a 2-second UV exposure to provide about 20% killing. Cells were plated at approximately 10^4 cells/plate onto eight YEPD plates that were supplemented with 100 mg/L each of uracil, adenine, and leucine, which were added to supplement the growth of potential auxotrophs having the cognate deficiencies. Following UV exposure the plates were wrapped in foil and incubated overnight at 30° C. The following day the colonies on the plates (~10^5 total) were resuspended in water and washed once with water. An amount of cell suspension sufficient to give an OD600 of 0.1-0.2 was used to inoculate 500 ml of minimal broth made with yeast nitrogen base without amino acids or ammonia, supplemented with 1% glucose and 400 μg/L biotin. The culture was placed in a 2.8 L baffled Bell flask and shaken vigorously overnight at 30° C. The following day the cells had reached an OD600 of ~1.0-2.0. The cells were pelleted and resuspended in 500 ml of minimal broth supplemented with 5 g/L ammonium sulfate. The cell suspension was placed in a 2.8 L baffled Bell flask and shaken vigorously at 30° C. for 6 hours. […] The cultures were incubated with shaking for an additional hour. The control and nystatin-treated cells were then harvested by centrifugation and washed with water three times. […]
structure (smiles),measurement,value
C[C@@H]1[C@H](O)[C@@H](C)/C=C/C=C/CC/C=C/C=C/C=C/C=C/C(O[C@H]2O[C@H](C)[C@@H](O)[C@H](N)[C@@H]2O)CC2O[C@](O)(CC(O)C(O)CCC(O)CC(O)CC(O)CC(=O)O[C@H]1C)CC(O)C2C(=O)O (stereo partly shown) [nystatin],"decrease in the number of viable cells (colony forming units), factor",10^4
